Test results as given in patent publication US20130041036A1, “FERULIC ACID AS FEED SUPPLEMENT IN BEEF CATTLE TO PROMOTE ANIMAL GROWTH AND IMPROVE THE MEAT QUALITY OF THE CARCASS AND THE MEAT” (BIOKAB, S.A. DE C.V., priority 2011, published 2013).
Entries after “also recorded” stand apart in the source; their conditions may differ. Marks after values point to notes of the source that are not given here.

Tests used:
feedlot steers = details: steers supplemented with ractopamine compared to the control; cited from earlier work
beef cattle = experiment: Feedlot performance and carcass quality of beef cattle; type: in vivo, beef cattle of commercial breeds; details: for CCW: cold carcass weight: carcass 24 hr at 0° C.; for PH45: pH at 45 min postmortem: Longissimus dorsi
Source text: In this study, all animals received the same prophylactic management, and all were subsequently assigned randomly to one of the following four treatments (25 animals per treatment, divided into pens of 5 experimental units per pen):
Definition of the 4 Treatments
Treatment 1 (Control): control animals (receiving only the basal diet without supplementation of the additive).
Treatment 2 (Ferulic Acid for 30 days=FA30): Animals receiving the basal diet supplemented with 240 ppm of ferulic acid during the last 30 days of the fattening period.
Treatment 3 (Ferulic Acid for 60 days=FA60): Animals receiving the basal diet supplemented with 240 ppm of ferulic acid during the last 60 days of the fattening period.
Treatment 4 (Zilmax commercial Zilpaterp; =ZX): Animals receiving the basal diet and supplemented with 6 ppm hydrochloride zilpaterol during the last 30 days of the fattening period.
During the experimental phase, all animals received a feeding ration consisting of 20% fodder and 80% concentrate. The crop was corn stover, while the concentrate consisted of different proportions of rolled corn grain, soybean meal, canola meal, distillery grains, and molasses. The ration was provided twice a day, and there was free access to the food and drinking water.
Initial and final live weight was recorded in the productive performance trial. The performance test lasted 60 days. Daily feed intake was evaluated, weight was recorded at the beginning and end of experimental period, in order to estimate the average daily gain and feed conversion.
Before concluding the performance test, 2 animals were randomly selected per pen (10 per treatment) for humanitarian slaughter. The animals were sacrificed following the standard procedures of the official Mexican standards in the municipal slaughterhouse of Guadalajara, Jalisco. Animal live weight was recorded before slaughter.
During the slaughter process, the pH of the carcass at 45 min postmortem in the Longissimus dorsi muscle (LD) was measured and the weight of the hot carcass was recorded. The carcasses were refrigerated at 0° C. for 24 hr. After this, the final pH was measured and cold carcass weight recorded, and the classification of carcasses was carried out, recording the Rib eye area (REA) in square inches, back fat thickness (BFT) in mm, and the marbling in the 12th intercostal space of the LD; the skeletal maturity and conformation of the carcass was also evaluated (10 carcasses per treatment). The assessment of quality of the carcass was made following the procedures described by the US Department of Agriculture (USDA, 2000).
(§1) All data for response variables of the quality of carcass and meat were analyzed under a completely randomized design, with a one-way ANOVA, taking the experimental treatments as a fixed effect. For carcass BFT and REA characteristics the hot carcass weight was used as a covariable. Regarding the sensory attributes, the model also included the effect of panelist as the repeated measure. The variables of the shelf life study were analyzed as a completely randomized design with factorial arrangement, factor A being the treatment with 4 levels, and factor B, the storage time with 5 levels. When there were statistical differences (P<0.05) between treatments, average comparisons were performed by the multiple range test of Tukey. All data was processed in the NCSS statistical package (NCSS, 2001).

Longissimus dorsi muscle [1] = experiment: Chemical and physicochemical quality of Longissimus dorsi muscle from supplemented cattle; type: in vivo, beef cattle of commercial breeds; details: for SF: shear force: Warner-Bratzler; for L* value: fresh meat brightness; for a* value: fresh meat redness; for b* value: fresh meat yellowness; for pH: meat
Protocol: (§2) Subsequent to the carcass classification the rib eye cut (LD muscle) was obtained of the left side of each selected carcass. Meat samples were identified, vacuum packed, frozen at -18° C., and then shipped under refrigeration by air courier to the Centro de Investigación en Alimentacion y Desarrollo A.C. (CIAD) facilities at Hermosillo, Sonora, to perform quality analysis of the meat: Chemical analysis (moisture and fat content), physicochemical (objective color parameters L*, which measures the brightness of the meat, a* value, which measures the redness, and b* value which measures the tendency towards yellowness, and hue-angle, Warner-Bratzler shear force, water retention capacity and pH). A sensory test was done by a trained panel consisting of 10 members using a descriptive test with a semi-structured 10 cm scale, where zero indicates a […] of the attribute and a 10 indicates a favorable rating (e.g. tenderness, zero indicates extremely hard and 10 extremely tender). The sensory attributes that were measured: total color and overall appearance of raw meat, flavor, odor, color, tenderness, fat perception, juiciness, and perception of connective tissue in cooked meat. […] To measure cooking loss, the meat sample was weighed before and immediately after reaching the final cooking temperature, which was expressed in percentage. All data for response variables of the quality of carcass and meat were analyzed under a completely randomized design, with a one-way ANOVA, taking the experimental treatments as a fixed effect. For carcass BFT and REA characteristics the hot carcass weight was used as a covariable. Regarding the sensory attributes, the model also included the effect of panelist as the repeated measure. The variables of the shelf life study were analyzed as a completely randomized design with factorial arrangement, factor A being the treatment with 4 levels, and factor B, the storage time with 5 levels. When there were statistical differences (P<0.05) between treatments, average comparisons were performed by the multiple range test of Tukey.

Longissimus dorsi muscle [2] = experiment: Sensory test of Longissimus dorsi meat by trained panel; type: in vivo, beef cattle of commercial breeds; details: for Tenderness / Connective tissue perception / Fat perception / Flavor intensity / Juiciness / Odor intensity: cooked meat; for Tenderness: 10 cm scale, zero extremely hard, 10 extremely tender; for Connective tissue perception / Fat perception / Flavor intensity / Juiciness / Odor intensity / Appearance / Overall Color: semi-structured 10 cm scale; for Appearance / Overall Color: raw meat
Protocol: as §2

Longissimus dorsi muscle [3] = experiment: Shelf life study of refrigerated meat (colour, TBARS); type: in vivo, beef cattle of commercial breeds; details: for TBA values (lipid oxidation) during shelf life: FIG. 2
Protocol: In order to estimate the antioxidant effect of ferulic acid, 5 chops of the meat samples were taken (5 experimental units) of the respective treatments, which were packed with traditional packaging (film wrapped) and subjected to a refrigeration process from 4 and 5° C. for 10 days in a room equipped for this purpose. During the shelf life (Day 1, 3, 5, 7 and 9 of storage) the objective color parameters mentioned above, as well as determination of substances reactive to thiobarbituric acid (TBARS) were evaluated according to the methodology described by Pfalzgraf et al. (1995). TBA values were expressed as substances reactive to 2-thiobarbituric acid (TBARS) in mg malonaldehyde/kg sample.
as §1

pigs = pigs supplemented with 50 ppm of ferulic acid; cited from earlier work
[4] = 240 ppm ferulic acid (FA30) or 6 ppm zilpaterol hydrochloride (ZX) in diet, last 30 days of fattening
[5] = 240 ppm ferulic acid (FA30) or 6 ppm zilpaterol hydrochloride (ZX), last 30 days of fattening
[6] = 240 ppm ferulic acid in diet, last 60 days of fattening (FA60)
[7] = 240 ppm ferulic acid, last 60 days of fattening (FA60)
[8] = 240 ppm ferulic acid, last 60 days (FA60)
[9] = FA30 240 ppm or ZX 6 ppm, last 30 days of fattening
[10] = FA30 240 ppm or ZX 6 ppm, last 30 days of fattening, listed as FA30

CC(CCc1ccc(O)cc1)NCC(O)c1ccc(O)cc1 (stereo not drawn) [ractopamine]
shear force of meat (feedlot steers): significant increase in the shear force

COc1cc(/C=C/C(=O)O)ccc1O [ferulic acid, trans-4-hydroxy-3-methoxy cinnamic acid]
FW: final weight (beef cattle; [4]): 553.5 kg
HCW: hot carcass weight (beef cattle; [4]): 336.42 kg
CCW: cold carcass weight (beef cattle; [4]): 331.13 kg
BFT: back fat thickness (beef cattle; [5]): 4.29 mm
PH24: pH at 24 h postmortem (beef cattle; [5]): 5.63
REA: rib eye area (beef cattle; [5]): 14.54 Inch^2
CY: carcass yield (beef cattle; [6]): 59.85^ab %
FW: final weight (beef cattle; [6]): 551.9 kg
HCW: hot carcass weight (beef cattle; [6]): 330.42 kg
CCW: cold carcass weight (beef cattle; [6]): 325.42 kg
BFT: back fat thickness (beef cattle; [7]): 4.38 mm
PH24: pH at 24 h postmortem (beef cattle; [7]): 5.61
REA: rib eye area (beef cattle; [7]): 14.21 Inch^2
PH45: pH at 45 min postmortem (beef cattle; [5]): 6.54^b
PH45: pH at 45 min postmortem (beef cattle; [7]): 6.33^ab
Cooking loss (Longissimus dorsi muscle [1]; [5]): 17.65^ab %
Fat content (Longissimus dorsi muscle [1]; [5]): 2.13%
Hue angle (Longissimus dorsi muscle [1]; [5]): 36.79
Moisture (Longissimus dorsi muscle [1]; [5]): 73.10%
WHC: water holding capacity (Longissimus dorsi muscle [1]; [5]): 25.73%
Cooking loss (Longissimus dorsi muscle [1]; [7]): 19.65^b %
Fat content (Longissimus dorsi muscle [1]; [7]): 2.52%
Hue angle (Longissimus dorsi muscle [1]; [7]): 37.13
Moisture (Longissimus dorsi muscle [1]; [7]): 73.41%
WHC: water holding capacity (Longissimus dorsi muscle [1]; [7]): 25.44%
SF: shear force (Longissimus dorsi muscle [1]; [5]): values significantly lower
SF: shear force (Longissimus dorsi muscle [1]; 240 ppm ferulic acid (FA30) or 6 ppm zilpaterol hydrochloride (ZX), last 30 days of fattening, listed as FA30): 7.94^a kg F
SF: shear force (Longissimus dorsi muscle [1]; [7]): 8.32^ab kg F
L* value (Longissimus dorsi muscle [1]; [5]): 36.66
L* value (Longissimus dorsi muscle [1]; [7]): 35.74
a* value (Longissimus dorsi muscle [1]; [5]): 16.86
a* value (Longissimus dorsi muscle [1]; [7]): 17.55
b* value (Longissimus dorsi muscle [1]; [5]): 12.53
b* value (Longissimus dorsi muscle [1]; [7]): 13.22
pH (Longissimus dorsi muscle [1]; [5]): 5.54
pH (Longissimus dorsi muscle [1]; [7]): 5.57
Tenderness (Longissimus dorsi muscle [2]; [8]): 7.54^ab
Tenderness (Longissimus dorsi muscle [2]; [9]): more tender
Tenderness (Longissimus dorsi muscle [2]; [10]): 7.68^b
Connective tissue perception (Longissimus dorsi muscle [2]; [8]): 1.50
Fat perception (Longissimus dorsi muscle [2]; [8]): 3.62
Flavor intensity (Longissimus dorsi muscle [2]; [8]): 7.32^ab
Juiciness (Longissimus dorsi muscle [2]; [8]): 6.76^ab
Odor intensity (Longissimus dorsi muscle [2]; [8]): 7.90
Connective tissue perception (Longissimus dorsi muscle [2]; [9]): 1.57
Fat perception (Longissimus dorsi muscle [2]; [9]): 3.22
Flavor intensity (Longissimus dorsi muscle [2]; [9]): better flavored
Juiciness (Longissimus dorsi muscle [2]; [9]): juicier
Odor intensity (Longissimus dorsi muscle [2]; [9]): 8.05
Flavor intensity (Longissimus dorsi muscle [2]; [10]): 7.73^b
Juiciness (Longissimus dorsi muscle [2]; [10]): 7.09^b
Appearance (Longissimus dorsi muscle [2]; [8]): 7.11
Overall Color (Longissimus dorsi muscle [2]; [8]): 7.65
Appearance (Longissimus dorsi muscle [2]; [9]): 7.41
Overall Color (Longissimus dorsi muscle [2]; [9]): 7.51
color parameter a* (redness) during shelf life (Longissimus dorsi muscle [3]; film wrapped meat at 4 and 5° C., days 1-9, 240 ppm ferulic acid last 30 days of fattening, FIG. 1, listed as FA30): delayed effect of the deterioration of the red color of the meat; also recorded: maintained the highest values of a* until day 7 of storage
TBA values (lipid oxidation) during shelf life (Longissimus dorsi muscle [3]; film wrapped meat at 4 and 5° C., days 1-9, 240 ppm ferulic acid last 30 days of fattening): lower; also recorded: smaller increases in TBA values
TBA values (lipid oxidation) during shelf life (Longissimus dorsi muscle [3]; film wrapped meat at 4 and 5° C., days 1-9, 240 ppm ferulic acid last 60 days of fattening): faster oxidation
photographic pattern of changes of meat color during shelf life (Longissimus dorsi muscle [3]; refrigerated storage, 240 ppm ferulic acid last 30 days of fattening, FIG. 3): maintain the red meat color with less changes until day 7 of storage
thickness of the dorsal fat (pigs): decrease in the thickness of the dorsal fat

CC(C)N[C@@H]1CCn2c(=O)[nH]c3cccc(c32)[C@H]1O.Cl [ZX, zilpaterol hydrochloride, reference compound]
CY: carcass yield (beef cattle; [4]): 61.53^b %
FW: final weight (beef cattle; [4]): 579.4 kg
HCW: hot carcass weight (beef cattle; [4]): 356.34 kg
CCW: cold carcass weight (beef cattle; [4]): 350.62 kg
BFT: back fat thickness (beef cattle; [5]): 3.05 mm
PH24: pH at 24 h postmortem (beef cattle; [5]): 5.63
REA: rib eye area (beef cattle; [5]): 15.41 Inch^2
PH45: pH at 45 min postmortem (beef cattle; [5]): 6.17^a
Cooking loss (Longissimus dorsi muscle [1]; [5]): 19.20^b %
Fat content (Longissimus dorsi muscle [1]; [5]): 2.36%
Hue angle (Longissimus dorsi muscle [1]; [5]): 36.05
Moisture (Longissimus dorsi muscle [1]; [5]): 73.02%
WHC: water holding capacity (Longissimus dorsi muscle [1]; [5]): 25.13%
SF: shear force (Longissimus dorsi muscle [1]; [5]): 10.37^b kg F
L* value (Longissimus dorsi muscle [1]; [5]): 35.34
a* value (Longissimus dorsi muscle [1]; [5]): 16.39
b* value (Longissimus dorsi muscle [1]; [5]): 11.95
pH (Longissimus dorsi muscle [1]; [5]): 5.57
Tenderness (Longissimus dorsi muscle [2]; [9]): 6.85^a
Connective tissue perception (Longissimus dorsi muscle [2]; [9]): 1.42
Fat perception (Longissimus dorsi muscle [2]; [9]): 3.34
Flavor intensity (Longissimus dorsi muscle [2]; [9]): 6.56^a
Juiciness (Longissimus dorsi muscle [2]; [9]): 6.00^a
Odor intensity (Longissimus dorsi muscle [2]; [9]): 7.89
Appearance (Longissimus dorsi muscle [2]; [9]): 7.17
Overall Color (Longissimus dorsi muscle [2]; [9]): 7.41
